{"source": "PubChem BioAssay AID1963967", "about": "(Molecular Pharmacology Branch, DTP, NCI, 2024);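 note: agents incubated with spheroids for one week before read-out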;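 for viability, T/C: 100% = DMSO vehicle-treated control wells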", "test_system": "855422-203-R-J1-PDC spheroids with HUVEC/MSC, viability", "assay": "Anticancer human tumor 855422-203-R-J1-PDC patient-derived bladder carcinoma cell line growth inhibition [PI3K]", "conditions": "for IC50: curve of first compound; for viability, T/C: stronger effect = lower value", "how_it_was_run": "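Stroma-containing spheroids: tumor line, pooled-donor HUVEC, hMSC. Treatments: targeted agents with PI3K inhibitors. Dosing: clinically relevant, half-log spacing, 10 microM ceiling without known Cmax. Read-out: cell viability.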", "key": {"[1]": {"conditions": "second compound 0.0316 µM, first compound 0.0316 µM"}, "[2]": {"conditions": "second compound 0.0316 µM, first compound 0.1 µM"}, "[3]": {"conditions": "second compound 0.0316 µM, first compound 0.316 µM"}, "[4]": {"conditions": "second compound 0.0316 µM, first compound 1 µM"}, "[5]": {"conditions": "second compound 0.0316 µM, first compound 3.16 µM"}, "[6]": {"conditions": "second compound 0.0316 µM, first compound 10 µM"}, "[7]": {"conditions": "second compound 0.1 µM, first compound 0.0316 µM"}, "[8]": {"conditions": "second compound 0.1 µM, first compound 0.1 µM"}, "[9]": {"conditions": "second compound 0.1 µM, first compound 0.316 µM"}, "[10]": {"conditions": "second compound 0.1 µM, first compound 1 µM"}, "[11]": {"conditions": "second compound 0.1 µM, first compound 3.16 µM"}, "[12]": {"conditions": "second compound 0.1 µM, first compound 10 µM"}, "[13]": {"conditions": "second compound 0.316 µM, first compound 0.0316 µM"}, "[14]": {"conditions": "second compound 0.316 µM, first compound 0.1 µM"}, "[15]": {"conditions": "second compound 0.316 µM, first compound 0.316 µM"}, "[16]": {"conditions": "second compound 0.316 µM, first compound 1 µM"}, "[17]": {"conditions": "second compound 0.316 µM, first compound 3.16 µM"}, "[18]": {"conditions": "second compound 0.316 µM, first compound 10 µM"}, "[19]": {"conditions": "second compound 1 µM, first compound 0.0316 µM"}, "[20]": {"conditions": "second compound 1 µM, first compound 0.1 µM"}, "[21]": {"conditions": "second compound 1 µM, first compound 0.316 µM"}, "[22]": {"conditions": "second compound 1 µM, first compound 1 µM"}, "[23]": {"conditions": "second compound 1 µM, first compound 3.16 µM"}, "[24]": {"conditions": "second compound 1 µM, first compound 10 µM"}, "[25]": {"conditions": "second compound 3.16 µM, first compound 0.0316 µM"}, "[26]": {"conditions": "second compound 3.16 µM, first compound 0.1 µM"}, "[27]": {"conditions": "second compound 3.16 µM, first compound 0.316 µM"}, "[28]": {"conditions": "second compound 3.16 µM, first compound 1 µM"}, "[29]": {"conditions": "second compound 3.16 µM, first compound 3.16 µM"}, "[30]": {"conditions": "second compound 3.16 µM, first compound 10 µM"}, "[31]": {"conditions": "second compound 10 µM, first compound 0.0316 µM"}, "[32]": {"conditions": "second compound 10 µM, first compound 0.1 µM"}, "[33]": {"conditions": "second compound 10 µM, first compound 0.316 µM"}, "[34]": {"conditions": "second compound 10 µM, first compound 1 µM"}, "[35]": {"conditions": "second compound 10 µM, first compound 3.16 µM"}, "[36]": {"conditions": "second compound 10 µM, first compound 10 µM"}}, "data": [{"smiles": "C#Cc1c(F)ccc2cc(O)cc(-c3ncc4c(N5CC6CCC(C5)N6)nc(OCC56CCCN5CC(F)C6)nc4c3F)c12", "note": "(centres undefined) + CC(Nc1ncnc2nc[nH]c12)c1cc2cccc(Cl)c2c(=O)n1-c1ccccc1", "values": [{"measurement": "IC50", "setting": "second compound 0.0316 µM", "result": "> 10", "unit": "µM"}, {"measurement": "IC50", "setting": "second compound 0.1 µM", "result": "> 10", "unit": "µM"}, {"measurement": "IC50", "setting": "second compound 0.316 µM", "result": "> 10", "unit": "µM"}, {"measurement": "IC50", "setting": "second compound 1 µM", "result": "> 10", "unit": "µM"}, {"measurement": "IC50", "setting": "second compound 3.16 µM", "result": "> 10", "unit": "µM"}, {"measurement": "IC50", "setting": "second compound 10 µM", "result": "> 10", "unit": "µM"}, {"measurement": "viability, T/C", "setting": "[1]", "result": 105, "unit": "%"}, {"measurement": "viability, T/C", "setting": "[2]", "result": 101, "unit": "%"}, {"measurement": "viability, T/C", "setting": "[3]", "result": 116, "unit": "%"}, {"measurement": "viability, T/C", "setting": "[4]", "result": 98.3, "unit": "%"}, {"measurement": "viability, T/C", "setting": "[5]", "result": 112, "unit": "%"}, {"measurement": "viability, T/C", "setting": "[6]", "result": 119, "unit": "%"}, {"measurement": "viability, T/C", "setting": "[7]", "result": 107, "unit": "%"}, {"measurement": "viability, T/C", "setting": "[8]", "result": 102, "unit": "%"}, {"measurement": "viability, T/C", "setting": "[9]", "result": 107, "unit": "%"}, {"measurement": "viability, T/C", "setting": "[10]", "result": 101, "unit": "%"}, {"measurement": "viability, T/C", "setting": "[11]", "result": 110, "unit": "%"}, {"measurement": "viability, T/C", "setting": "[12]", "result": 112, "unit": "%"}, {"measurement": "viability, T/C", "setting": "[13]", "result": 98.1, "unit": "%"}, {"measurement": "viability, T/C", "setting": "[14]", "result": 108, "unit": "%"}, {"measurement": "viability, T/C", "setting": "[15]", "result": 96.6, "unit": "%"}, {"measurement": "viability, T/C", "setting": "[16]", "result": 102, "unit": "%"}, {"measurement": "viability, T/C", "setting": "[17]", "result": 106, "unit": "%"}, {"measurement": "viability, T/C", "setting": "[18]", "result": 121, "unit": "%"}, {"measurement": "viability, T/C", "setting": "[19]", "result": 102, "unit": "%"}, {"measurement": "viability, T/C", "setting": "[20]", "result": 102, "unit": "%"}, {"measurement": "viability, T/C", "setting": "[21]", "result": 103, "unit": "%"}, {"measurement": "viability, T/C", "setting": "[22]", "result": 109, "unit": "%"}, {"measurement": "viability, T/C", "setting": "[23]", "result": 104, "unit": "%"}, {"measurement": "viability, T/C", "setting": "[24]", "result": 115, "unit": "%"}, {"measurement": "viability, T/C", "setting": "[25]", "result": 107, "unit": "%"}, {"measurement": "viability, T/C", "setting": "[26]", "result": 99.1, "unit": "%"}, {"measurement": "viability, T/C", "setting": "[27]", "result": 112, "unit": "%"}, {"measurement": "viability, T/C", "setting": "[28]", "result": 93.7, "unit": "%"}, {"measurement": "viability, T/C", "setting": "[29]", "result": 98.1, "unit": "%"}, {"measurement": "viability, T/C", "setting": "[30]", "result": 126, "unit": "%"}, {"measurement": "viability, T/C", "setting": "[31]", "result": 87.2, "unit": "%"}, {"measurement": "viability, T/C", "setting": "[32]", "result": 82.8, "unit": "%"}, {"measurement": "viability, T/C", "setting": "[33]", "result": 80, "unit": "%"}, {"measurement": "viability, T/C", "setting": "[34]", "result": 88.5, "unit": "%"}, {"measurement": "viability, T/C", "setting": "[35]", "result": 94, "unit": "%"}, {"measurement": "viability, T/C", "setting": "[36]", "result": 88.9, "unit": "%"}]}, {"smiles": "C=CC(=O)N1CCN(c2nc(=O)n(-c3c(C)ccnc3C(C)C)c3nc(-c4c(O)cccc4F)c(F)cc23)C(C)C1", "note": "(centres undefined) + CC(Nc1ncnc2nc[nH]c12)c1cc2cccc(Cl)c2c(=O)n1-c1ccccc1", "values": [{"measurement": "IC50", "setting": "second compound 0.0316 µM", "result": "> 10", "unit": "µM"}, {"measurement": "IC50", "setting": "second compound 0.1 µM", "result": "> 10", "unit": "µM"}, {"measurement": "IC50", "setting": "second compound 0.316 µM", "result": "> 10", "unit": "µM"}, {"measurement": "IC50", "setting": "second compound 1 µM", "result": "> 10", "unit": "µM"}, {"measurement": "IC50", "setting": "second compound 3.16 µM", "result": "> 10", "unit": "µM"}, {"measurement": "IC50", "setting": "second compound 10 µM", "result": "> 10", "unit": "µM"}, {"measurement": "viability, T/C", "setting": "[1]", "result": 107, "unit": "%"}, {"measurement": "viability, T/C", "setting": "[2]", "result": 91.1, "unit": "%"}, {"measurement": "viability, T/C", "setting": "[3]", "result": 112, "unit": "%"}, {"measurement": "viability, T/C", "setting": "[4]", "result": 95, "unit": "%"}, {"measurement": "viability, T/C", "setting": "[5]", "result": 128, "unit": "%"}, {"measurement": "viability, T/C", "setting": "[6]", "result": 133, "unit": "%"}, {"measurement": "viability, T/C", "setting": "[7]", "result": 102, "unit": "%"}, {"measurement": "viability, T/C", "setting": "[8]", "result": 90.7, "unit": "%"}, {"measurement": "viability, T/C", "setting": "[9]", "result": 109, "unit": "%"}, {"measurement": "viability, T/C", "setting": "[10]", "result": 110, "unit": "%"}, {"measurement": "viability, T/C", "setting": "[11]", "result": 119, "unit": "%"}, {"measurement": "viability, T/C", "setting": "[12]", "result": 129, "unit": "%"}, {"measurement": "viability, T/C", "setting": "[13]", "result": 97.5, "unit": "%"}, {"measurement": "viability, T/C", "setting": "[14]", "result": 92, "unit": "%"}, {"measurement": "viability, T/C", "setting": "[15]", "result": 98.3, "unit": "%"}, {"measurement": "viability, T/C", "setting": "[16]", "result": 121, "unit": "%"}, {"measurement": "viability, T/C", "setting": "[17]", "result": 122, "unit": "%"}, {"measurement": "viability, T/C", "setting": "[18]", "result": 122, "unit": "%"}, {"measurement": "viability, T/C", "setting": "[19]", "result": 100, "unit": "%"}, {"measurement": "viability, T/C", "setting": "[20]", "result": 98.7, "unit": "%"}, {"measurement": "viability, T/C", "setting": "[21]", "result": 112, "unit": "%"}, {"measurement": "viability, T/C", "setting": "[22]", "result": 117, "unit": "%"}, {"measurement": "viability, T/C", "setting": "[23]", "result": 122, "unit": "%"}, {"measurement": "viability, T/C", "setting": "[24]", "result": 110, "unit": "%"}, {"measurement": "viability, T/C", "setting": "[25]", "result": 102, "unit": "%"}, {"measurement": "viability, T/C", "setting": "[26]", "result": 102, "unit": "%"}, {"measurement": "viability, T/C", "setting": "[27]", "result": 104, "unit": "%"}, {"measurement": "viability, T/C", "setting": "[28]", "result": 115, "unit": "%"}, {"measurement": "viability, T/C", "setting": "[29]", "result": 116, "unit": "%"}, {"measurement": "viability, T/C", "setting": "[30]", "result": 101, "unit": "%"}, {"measurement": "viability, T/C", "setting": "[31]", "result": 108, "unit": "%"}, {"measurement": "viability, T/C", "setting": "[32]", "result": 90.4, "unit": "%"}, {"measurement": "viability, T/C", "setting": "[33]", "result": 104, "unit": "%"}, {"measurement": "viability, T/C", "setting": "[34]", "result": 102, "unit": "%"}, {"measurement": "viability, T/C", "setting": "[35]", "result": 115, "unit": "%"}, {"measurement": "viability, T/C", "setting": "[36]", "result": 105, "unit": "%"}]}]}
